# Data from patent US20240277713A1 (Kadmon Corporation, LLC, priority 2022, published 2024).
# Marks after values point to notes of the source that are not given here.
# System: New Zealand White rabbits
# Assay: Embryo-fetal developmental toxicity study in New Zealand White rabbits (Example 4);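 note: dams given a detailed clinical exam daily GD 6 to 29, about 4 h after dosing, then laparohysterectomy on GD 29 with external, visceral and skeletal fetal examination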
smiles,measurement,setting,value
"CC(C)NC(=O)COc1cccc(-c2nc(Nc3ccc4[nH]ncc4c3)c3ccccc3n2)c1 [belumosudil, 2-{3-[4-(1H-indazol-5-ylamino)-2-quinazolinyl]phenoxy}-N-(propan-2-yl) acetamide]","Hair sparse, Forefoot/right, times observed/animals affected","125 mg base/kg/day, GD 0-29",0/0
same,"Hair sparse, Forelimb/left, times observed/animals affected","125 mg base/kg/day, GD 0-29",4/1
same,"Hair sparse, Hind limb/left, times observed/animals affected","125 mg base/kg/day, GD 0-29",0/0
same,"Hair sparse, Inguinal region/right, times observed/animals affected","125 mg base/kg/day, GD 0-29",4/1
same,"Hair sparse, Shoulder/left, times observed/animals affected","125 mg base/kg/day, GD 0-29",2/1
same,"Hair sparse, Thoracic region, times observed/animals affected","125 mg base/kg/day, GD 0-29",2/1
same,"Hair sparse, Ventral surface, times observed/animals affected","125 mg base/kg/day, GD 0-29",19/1
same,"Material in pan/bedding, Red, times observed/animals affected","125 mg base/kg/day, GD 0-29",2/1
same,"Nail missing, Forefoot/left, times observed/animals affected","125 mg base/kg/day, GD 0-29",0/0
same,"Scabbed area, Ear/left, times observed/animals affected","125 mg base/kg/day, GD 0-29",0/0
same,"Scabbed area, Nose/muzzle, times observed/animals affected","125 mg base/kg/day, GD 0-29",0/0
same,"Skin discolored, Pale, Entire body, times observed/animals affected","125 mg base/kg/day, GD 0-29",0/0
same,"Swelling, Nose/muzzle, times observed/animals affected","125 mg base/kg/day, GD 0-29",0/0
same,"Swelling, Vulva, times observed/animals affected","125 mg base/kg/day, GD 0-29",0/0
same,"Thin, times observed/animals affected","125 mg base/kg/day, GD 0-29",0/0
same,"Fetal Body Weight Genders Combined, % Difference From Control",225 mg base/kg/day,−5.76%
same,"Fetal External Malformation: Short Tail, No. Fetuses (incidence)",225 mg base/kg/day,5 (3.2)
same,"Fetal External Malformation: Short Tail, No. Litters (incidence)",225 mg base/kg/day,2 (10.5)
same,"Fetal External Malformations, No. Fetuses (incidence)",225 mg base/kg/day,5 (3.2)
same,"Fetal External Malformations, No. Litters (incidence)",225 mg base/kg/day,2 (10.5)
same,"Fetal Skeletal Malformations, No. Fetuses (incidence)",225 mg base/kg/day,19 (12.2)
same,"Fetal Skeletal Malformations, No. Litters (incidence)",225 mg base/kg/day,10 (52.6)
same,"Fetal Visceral Variations, No. Fetuses (incidence)",225 mg base/kg/day,12 (7.7)
same,"Fetal Visceral Variations, No. Litters (incidence)",225 mg base/kg/day,8 (42.1)
same,"Maternal Body Weight Change GD 0-29, % Difference From Control",225 mg base/kg/day,−24.2%
same,"Maternal Body Weight GD 10, % Difference From Control",225 mg base/kg/day,−6.3%
same,"Maternal Body Weight GD 13, % Difference From Control",225 mg base/kg/day,−8.0%
same,"Maternal Body Weight GD 16, % Difference From Control",225 mg base/kg/day,−9.2%
same,"Maternal Body Weight GD 19, % Difference From Control",225 mg base/kg/day,−8.4%
same,"Maternal Body Weight GD 21, % Difference From Control",225 mg base/kg/day,−6.7%
same,Maternal Food Consumption GD 0-29,225 mg base/kg/day,119.80
same,"Maternal Food Consumption GD 0-29, % Difference From Control",225 mg base/kg/day,−17.8%
same,Maternal Food Consumption GD 6-10,225 mg base/kg/day,61.2^b
same,Maternal Food Consumption GD 6-19,225 mg base/kg/day,78.70
same,"Maternal Food Consumption GD 6-19, % Difference From Control",225 mg base/kg/day,−49.7%
same,Maternal Food Consumption GD 19-29,225 mg base/kg/day,155.3^b
same,Mean Fetal Body Weight Females,225 mg base/kg/day,38.94 g
same,Mean Fetal Body Weight Genders Combined,225 mg base/kg/day,38.60 g
same,Mean Fetal Body Weight Males,225 mg base/kg/day,38.92 g
same,Mean Live Litter Size,225 mg base/kg/day,7.4
same,Mean Number of Early Resorptions,225 mg base/kg/day,1.4^a
same,Mean Number of Resorptions (Combined),225 mg base/kg/day,1.5^a
same,Mean Postimplantation Loss,225 mg base/kg/day,17.72 %/Litter
same,Number Litters with Viable Fetuses GD29,225 mg base/kg/day,19
same,Number with All Resorptions GD29,225 mg base/kg/day,2
same,"cervical vertebra(e) centra, hemicentra, fetal incidence",225 mg base/kg/day,2.6%
same,"cervical vertebra(e) centra, hemicentra, litter incidence",225 mg base/kg/day,21.1%
same,"neural arches (thoracic) fused, fetal incidence",225 mg base/kg/day,1.9%
same,"neural arches (thoracic) fused, litter incidence",225 mg base/kg/day,10.5%
same,"neural arches (thoracic) misaligned, fetal incidence",225 mg base/kg/day,1.3%
same,"neural arches (thoracic) misaligned, litter incidence",225 mg base/kg/day,10.5%
same,"neural arches (thoracic) misshapen, fetal incidence",225 mg base/kg/day,2.6%
same,"neural arches (thoracic) misshapen, litter incidence",225 mg base/kg/day,21.1%
same,"rib(s) branched, fetal incidence",225 mg base/kg/day,2.6%
same,"rib(s) branched, litter incidence",225 mg base/kg/day,21.2%
same,"rib(s) fused, fetal incidence",225 mg base/kg/day,2.6%
same,"rib(s) fused, litter incidence",225 mg base/kg/day,15.8%
same,"rib(s) misshapen, fetal incidence",225 mg base/kg/day,1.9%
same,"rib(s) misshapen, litter incidence",225 mg base/kg/day,15.8%
same,"short tail (entire), fetal incidence",225 mg base/kg/day,3.2%
same,"short tail (entire), litter incidence",225 mg base/kg/day,10.5%
same,"sternebra(e) extra, fetal incidence",225 mg base/kg/day,4.5%
same,"sternebra(e) extra, litter incidence",225 mg base/kg/day,21.1%
same,"sternebra(e) fused, fetal incidence",225 mg base/kg/day,4.5%
same,"sternebra(e) fused, litter incidence",225 mg base/kg/day,31.6%
same,"tail bent (entire), fetal incidence",225 mg base/kg/day,1.3%
same,"tail bent (entire), litter incidence",225 mg base/kg/day,5.3%
same,"ureter malpositioned, litter incidence",225 mg base/kg/day,26.3%
same,Number Aborted,"225 mg base/kg/day, 23 females",1
same,Number Died,"225 mg base/kg/day, 23 females",1
same,Number Litters with Viable Fetuses GD29,"225 mg base/kg/day, 23 females",19
same,Number Not Pregnant,"225 mg base/kg/day, 23 females",0
same,Number with All Resorptions GD29,"225 mg base/kg/day, 23 females",2
same,"Activity decreased, times observed/animals affected","225 mg base/kg/day, GD 0-29",4/1
same,"Feces few/absent, times observed/animals affected","225 mg base/kg/day, GD 0-29",0/0
same,"Hair discolored, Brown, Anogenital region, times observed/animals affected","225 mg base/kg/day, GD 0-29",0/0
same,"Hair discolored, Brown, Ear/left, times observed/animals affected","225 mg base/kg/day, GD 0-29",0/0
same,"Hair discolored, Brown, Ear/right, times observed/animals affected","225 mg base/kg/day, GD 0-29",0/0
same,"Hair discolored, Brown, Face, times observed/animals affected","225 mg base/kg/day, GD 0-29",12/2
same,"Hair discolored, Brown, Hind limb/left, times observed/animals affected","225 mg base/kg/day, GD 0-29",1/1
same,"Hair discolored, Red, Anogenital region, times observed/animals affected","225 mg base/kg/day, GD 0-29",0/0
same,"Hair discolored, Red, Face, times observed/animals affected","225 mg base/kg/day, GD 0-29",0/0
same,"Hair discolored, Red, Forelimb/left, times observed/animals affected","225 mg base/kg/day, GD 0-29",0/0
same,"Hair discolored, Red, Thoracic region, times observed/animals affected","225 mg base/kg/day, GD 0-29",0/0
same,"Hair discolored, Yellow, Ear/right, times observed/animals affected","225 mg base/kg/day, GD 0-29",0/0
same,"Hair discolored, Yellow, Face, times observed/animals affected","225 mg base/kg/day, GD 0-29",14/2
same,"Hair sparse, Anogenital region, times observed/animals affected","225 mg base/kg/day, GD 0-29",0/0
same,"Hair sparse, Axillary region/left, times observed/animals affected","225 mg base/kg/day, GD 0-29",3/1
same,"Hair sparse, Axillary region/right, times observed/animals affected","225 mg base/kg/day, GD 0-29",2/1
same,"Hair sparse, Cervical region, times observed/animals affected","225 mg base/kg/day, GD 0-29",0/0
same,"Hair sparse, Ear/left, times observed/animals affected","225 mg base/kg/day, GD 0-29",0/0
same,"Hair sparse, Ear/right, times observed/animals affected","225 mg base/kg/day, GD 0-29",0/0
same,"Hair sparse, Forefoot/left, times observed/animals affected","225 mg base/kg/day, GD 0-29",3/1
same,"Hair sparse, Forefoot/right, times observed/animals affected","225 mg base/kg/day, GD 0-29",5/2
same,"Hair sparse, Forelimb/left, times observed/animals affected","225 mg base/kg/day, GD 0-29",0/0
same,"Hair sparse, Hind limb/left, times observed/animals affected","225 mg base/kg/day, GD 0-29",8/1
same,"Hair sparse, Inguinal region/right, times observed/animals affected","225 mg base/kg/day, GD 0-29",0/0
same,"Hair sparse, Shoulder/left, times observed/animals affected","225 mg base/kg/day, GD 0-29",0/0
same,"Hair sparse, Thoracic region, times observed/animals affected","225 mg base/kg/day, GD 0-29",1/1
same,"Hair sparse, Ventral surface, times observed/animals affected","225 mg base/kg/day, GD 0-29",0/0
same,"Material in pan/bedding, Red, times observed/animals affected","225 mg base/kg/day, GD 0-29",2/2
same,"Nail missing, Forefoot/left, times observed/animals affected","225 mg base/kg/day, GD 0-29",0/0
same,"Scabbed area, Ear/left, times observed/animals affected","225 mg base/kg/day, GD 0-29",0/0
same,"Scabbed area, Nose/muzzle, times observed/animals affected","225 mg base/kg/day, GD 0-29",0/0
same,"Skin discolored, Pale, Entire body, times observed/animals affected","225 mg base/kg/day, GD 0-29",11/1
same,"Swelling, Nose/muzzle, times observed/animals affected","225 mg base/kg/day, GD 0-29",0/0
same,"Swelling, Vulva, times observed/animals affected","225 mg base/kg/day, GD 0-29",2/1
same,"Thin, times observed/animals affected","225 mg base/kg/day, GD 0-29",38/5
same,NOAEL for maternal and developmental toxicity,pregnant rabbits,50 mg base/kg/day
same,"doses at which embryo-fetal effects were observed (abortion, post-implantation loss, malformations, decreased fetal body weight)","pregnant rabbits, oral",≥ 50 mg/kg/day
same,doses at which maternal toxicity (body weight loss and mortality) was observed,"pregnant rabbits, oral, organogenesis",≥ 125 mg/kg/day
